Measured values reported in ChEMBL document CHEMBL1201862, “PubChem BioAssay data set” (2004).
Active and inactive are the calls of the source.

Experiments:
Paired box protein Pax-8 = Paired box protein Pax-8 (Homo sapiens, UniProt Q06710); test: PAX8 transcriptional activity inhibition in RMG-I – RMG-I cells, luciferase, cherry-pick, dose response (AID 687027); format: functional, cell-based;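 note: luciferase reporter driven by Pax8 target thyroperoxidase promoter measured by SteadyGlo luminescence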
[1] = target: T1, Heat shock factor protein 1 (Mus musculus, UniProt P38532); test: decrease of HSF1-responsive luciferase luminescence – cell-based, NIH3T3, dose retest, confirmation (AID 2382); format: functional;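 note: NIH3T3 fibroblasts with HSF1-driven luciferase reporter stressed by proteasome inhibitor MG132; luminescence from HSF1-driven luciferase expression after 8 hours of MG132 stress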
T1 sequence (P38532 whole entry): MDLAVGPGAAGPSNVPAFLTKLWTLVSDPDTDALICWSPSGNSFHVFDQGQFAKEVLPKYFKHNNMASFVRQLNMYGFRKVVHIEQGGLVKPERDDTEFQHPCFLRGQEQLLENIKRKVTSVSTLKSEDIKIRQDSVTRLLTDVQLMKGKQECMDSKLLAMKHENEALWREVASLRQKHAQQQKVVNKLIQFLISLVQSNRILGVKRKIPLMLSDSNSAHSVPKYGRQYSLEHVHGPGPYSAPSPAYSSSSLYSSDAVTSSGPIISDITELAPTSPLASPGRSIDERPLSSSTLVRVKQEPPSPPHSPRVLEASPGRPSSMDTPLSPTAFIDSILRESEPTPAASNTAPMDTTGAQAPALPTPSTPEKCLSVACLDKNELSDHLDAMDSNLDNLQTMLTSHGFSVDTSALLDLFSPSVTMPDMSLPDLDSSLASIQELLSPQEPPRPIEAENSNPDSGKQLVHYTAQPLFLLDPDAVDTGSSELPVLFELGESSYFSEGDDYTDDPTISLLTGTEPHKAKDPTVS

Large T antigen = Large T antigen (Simian virus 40, UniProt P03070); format: functional, Betapolyomavirus macacae;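 note: Confirmatory-stage PubChem screen for compounds that inhibit SV40 T antigen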
[2] = target: T2, Rac GTPase-activating protein 1 (Homo sapiens, UniProt Q9H0H5); test: blockers of MgcRacGAP-driven Rac1 GTP hydrolysis – biochemical, ADP Hunter fluorescence, primary and confirmatory, confirmation (AID 624330); format: functional
T2 sequence (Q9H0H5 whole entry): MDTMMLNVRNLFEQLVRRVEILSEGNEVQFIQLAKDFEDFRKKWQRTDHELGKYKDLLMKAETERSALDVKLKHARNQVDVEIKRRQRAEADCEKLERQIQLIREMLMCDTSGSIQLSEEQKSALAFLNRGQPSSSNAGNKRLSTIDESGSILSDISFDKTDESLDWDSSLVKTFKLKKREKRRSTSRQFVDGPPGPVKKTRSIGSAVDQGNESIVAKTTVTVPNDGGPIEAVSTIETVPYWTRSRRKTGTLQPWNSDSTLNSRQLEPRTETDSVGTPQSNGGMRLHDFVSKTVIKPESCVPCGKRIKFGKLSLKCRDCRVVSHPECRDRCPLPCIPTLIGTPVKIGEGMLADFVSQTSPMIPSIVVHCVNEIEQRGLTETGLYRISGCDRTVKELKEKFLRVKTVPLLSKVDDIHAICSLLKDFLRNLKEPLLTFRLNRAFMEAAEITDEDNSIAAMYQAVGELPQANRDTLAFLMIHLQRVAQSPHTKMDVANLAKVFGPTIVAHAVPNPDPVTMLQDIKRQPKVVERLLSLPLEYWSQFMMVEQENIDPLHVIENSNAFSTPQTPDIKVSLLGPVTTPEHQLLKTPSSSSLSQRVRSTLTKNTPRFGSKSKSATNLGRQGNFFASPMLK

[3] = target: T3, Corticotropin-releasing factor receptor 2/Corticotropin-releasing factor-binding protein (Homo sapiens, UniProt P24387+Q13324); test: activators of CRF receptor 2 with binding protein – uHTS hits, confirmation (AID 602473); format: functional; settings: read-out: EC50_Mean
T3 sequence (Q13324 whole entry): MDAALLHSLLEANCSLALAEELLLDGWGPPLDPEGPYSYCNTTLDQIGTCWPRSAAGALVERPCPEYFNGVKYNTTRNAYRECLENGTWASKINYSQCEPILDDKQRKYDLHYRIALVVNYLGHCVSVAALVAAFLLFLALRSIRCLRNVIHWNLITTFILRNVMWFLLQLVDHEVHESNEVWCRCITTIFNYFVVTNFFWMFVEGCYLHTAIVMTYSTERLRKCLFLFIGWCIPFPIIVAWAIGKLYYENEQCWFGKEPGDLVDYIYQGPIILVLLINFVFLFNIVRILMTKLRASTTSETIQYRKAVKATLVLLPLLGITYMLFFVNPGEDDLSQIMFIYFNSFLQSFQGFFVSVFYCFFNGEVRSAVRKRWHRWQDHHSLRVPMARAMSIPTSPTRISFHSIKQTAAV
T3 sequence (P24387 whole entry): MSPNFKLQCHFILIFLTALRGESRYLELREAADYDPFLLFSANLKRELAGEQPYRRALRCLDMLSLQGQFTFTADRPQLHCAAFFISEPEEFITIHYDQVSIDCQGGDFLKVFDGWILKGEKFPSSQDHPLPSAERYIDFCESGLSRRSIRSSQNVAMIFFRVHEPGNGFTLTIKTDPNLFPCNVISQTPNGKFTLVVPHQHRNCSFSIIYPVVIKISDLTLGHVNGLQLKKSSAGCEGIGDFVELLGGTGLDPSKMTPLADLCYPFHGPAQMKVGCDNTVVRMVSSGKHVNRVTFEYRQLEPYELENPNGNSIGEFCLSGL

[4] = target: T3, Corticotropin-releasing factor receptor 2/Corticotropin-releasing factor-binding protein; test: Dose Response confirmation of uHTS hits for small molecule antagonists of the CRF-binding protein and CRF-R2 receptor complex.; format: functional; settings: read-out: IC50_Mean
[5] = target: FAD-linked sulfhydryl oxidase ALR (Homo sapiens, UniProt P55789); test: ALR-catalysed DTT oxidation blockers – biochemical, H2O2 detection, luminescence, cherry-pick, dose response (AID 493248)
[6] = viability of HCT116 lacking mutant beta-catenin – cell-based, human colon tumor, dose response (AID 1045); format: functional;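 note: HCT116 colon tumor cells with beta catenin knocked out; cells exposed to compound for 60 hours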
[7] = target: T4, Carboxy-terminal domain RNA polymerase II polypeptide A small phosphatase 1 (Homo sapiens, UniProt Q9GZU7); test: CTDSP1 inhibitors, concentration-response, biochemical, absorbance readout, ultra-high-throughput screen actives (AID 540297); format: functional
T4 sequence (Q9GZU7 whole entry): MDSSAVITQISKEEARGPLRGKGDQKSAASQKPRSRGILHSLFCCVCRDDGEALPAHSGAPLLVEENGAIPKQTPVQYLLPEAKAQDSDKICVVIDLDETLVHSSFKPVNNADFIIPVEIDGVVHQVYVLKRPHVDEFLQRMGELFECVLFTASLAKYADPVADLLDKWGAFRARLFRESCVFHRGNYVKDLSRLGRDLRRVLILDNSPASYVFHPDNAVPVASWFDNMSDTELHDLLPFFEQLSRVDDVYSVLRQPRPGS

[8] = viability of uninfected HEp-2 cells – cell-based, HTS, cytotoxicity control for RSV inhibitor project, dose response (AID 2410); format: functional; settings: human respiratory syncytial virus
[9] = Luminescence Cell-Based Dose Retest to Confirm Inhibitors of Cancer Stem Cells. [Related pubchem assays (depositor defined):AID2717, AID2721]; format: functional; settings: Homo sapiens
[10] = Luminescence Cell-Based Dose Response HTS to Identify Activators of Luciferase Translation or Activity in H4 […] Cells. [Related pubchem assays: 1829 (Project Summary), 1814 (Primary HTS)]; format: functional
H4 = test: Luminescence Cell-Based Dose Response HTS to Identify Activators of 5'UTR Stem-Loop Driven Prion Protein mRNA Translation in H4 Neuroglioblastoma Cells. [Related pubchem assays: 1829 (Project Summary), 1814 (Primary HTS)]; format: functional; settings: Homo sapiens
[11] = Luminescence Cell-Based Dose Confirmation HTS to Identify Activators of 5'UTR Stem-Loop Driven Alpha-Synuclein mRNA Translation in H4 Neuroglioblastoma Cells. [Related pubchem assays: 1829 (Project Summary), 1814 (Primary HTS)]; format: functional
Cytochrome P450 2D6 = Cytochrome P450 2D6 (Homo sapiens, UniProt P10635);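 note: CYP2D6 member of a cytochrome P450 panel assay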
[12] = Trypanosoma cruzi growth suppression in host cells – NIH3T3 host cells, beta-gal luminescence, confirmation (AID 2044); format: functional, cell-based;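 note: intracellular parasites grown in NIH/3T3 mouse fibroblasts as host cells; luminescent beta-galactosidase reporter signal from transgenic T. cruzi replicating inside host cells; inhibitors lower the luminescence signal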
[13] = NIH3T3 cell viability loss – ATP luminescence, mouse fibroblasts, counter-screen, dose response (AID 2010); format: functional, cell-based;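 note: cells exposed to compound for about 90 hours before reading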

Sequence of Paired box protein Pax-8 (Q06710 whole entry): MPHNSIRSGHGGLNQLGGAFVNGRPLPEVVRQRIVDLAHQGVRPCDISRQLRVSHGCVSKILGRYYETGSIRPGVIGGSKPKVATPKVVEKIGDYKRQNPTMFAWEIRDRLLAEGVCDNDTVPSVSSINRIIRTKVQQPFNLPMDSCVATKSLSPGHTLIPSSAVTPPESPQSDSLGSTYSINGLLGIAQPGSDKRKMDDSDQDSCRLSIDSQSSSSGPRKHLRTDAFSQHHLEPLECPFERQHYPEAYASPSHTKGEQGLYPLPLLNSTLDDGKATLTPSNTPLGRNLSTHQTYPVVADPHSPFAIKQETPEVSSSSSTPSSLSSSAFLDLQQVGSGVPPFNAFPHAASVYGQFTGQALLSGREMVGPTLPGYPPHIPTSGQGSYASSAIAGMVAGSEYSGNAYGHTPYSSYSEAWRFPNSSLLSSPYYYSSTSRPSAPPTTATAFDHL
Sequence of Large T antigen (P03070 whole entry): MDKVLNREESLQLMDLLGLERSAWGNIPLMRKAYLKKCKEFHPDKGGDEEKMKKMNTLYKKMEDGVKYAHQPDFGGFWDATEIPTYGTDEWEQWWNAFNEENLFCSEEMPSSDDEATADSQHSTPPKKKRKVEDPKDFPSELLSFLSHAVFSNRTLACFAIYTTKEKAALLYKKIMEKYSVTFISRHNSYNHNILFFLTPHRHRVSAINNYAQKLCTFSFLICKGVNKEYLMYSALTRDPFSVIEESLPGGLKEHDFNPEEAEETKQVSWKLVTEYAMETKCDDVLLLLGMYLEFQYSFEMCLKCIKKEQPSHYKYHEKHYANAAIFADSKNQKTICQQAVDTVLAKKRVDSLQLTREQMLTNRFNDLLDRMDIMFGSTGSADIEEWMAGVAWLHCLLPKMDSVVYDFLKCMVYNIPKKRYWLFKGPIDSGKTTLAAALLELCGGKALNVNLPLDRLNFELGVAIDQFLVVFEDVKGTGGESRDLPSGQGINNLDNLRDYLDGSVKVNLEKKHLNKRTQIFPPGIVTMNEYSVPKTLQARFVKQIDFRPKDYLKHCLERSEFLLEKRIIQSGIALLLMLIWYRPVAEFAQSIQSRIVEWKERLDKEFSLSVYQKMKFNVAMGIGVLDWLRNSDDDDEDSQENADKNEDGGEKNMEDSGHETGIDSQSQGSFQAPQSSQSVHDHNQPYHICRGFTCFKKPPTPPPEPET
Sequence of FAD-linked sulfhydryl oxidase ALR (P55789 whole entry): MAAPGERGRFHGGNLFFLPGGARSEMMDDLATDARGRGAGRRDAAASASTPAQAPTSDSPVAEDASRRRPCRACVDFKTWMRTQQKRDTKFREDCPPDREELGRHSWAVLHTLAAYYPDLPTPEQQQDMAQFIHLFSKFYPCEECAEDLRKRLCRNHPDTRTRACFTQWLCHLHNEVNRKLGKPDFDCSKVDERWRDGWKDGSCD
Sequence of Cytochrome P450 2D6 (P10635 whole entry): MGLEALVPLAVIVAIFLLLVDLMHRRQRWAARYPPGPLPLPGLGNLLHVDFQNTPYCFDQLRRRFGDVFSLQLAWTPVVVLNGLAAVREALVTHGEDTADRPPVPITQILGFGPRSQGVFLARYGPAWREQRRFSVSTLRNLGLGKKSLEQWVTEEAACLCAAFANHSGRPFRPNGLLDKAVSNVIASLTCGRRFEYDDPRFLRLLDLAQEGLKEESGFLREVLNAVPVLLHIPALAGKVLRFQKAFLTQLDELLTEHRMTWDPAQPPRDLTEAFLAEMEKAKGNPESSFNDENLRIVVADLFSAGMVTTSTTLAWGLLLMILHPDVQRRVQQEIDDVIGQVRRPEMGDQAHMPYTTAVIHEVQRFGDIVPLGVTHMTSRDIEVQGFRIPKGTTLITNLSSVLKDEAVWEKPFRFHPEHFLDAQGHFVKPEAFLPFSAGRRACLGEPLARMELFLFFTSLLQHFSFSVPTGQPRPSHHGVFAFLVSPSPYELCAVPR

## CC(C)CC#Cc1ccc2c(c1)O[C@@H](CN(C)Cc1ccncc1)[C@H](C)CN([C@@H](C)CO)S2(=O)=O
Paired box protein Pax-8
  AC50: 5.97 µM (active)

## Cc1ccc(C)c2nc(O)c(CCNC(=O)C(C)(C)C)cc12
[1]
  EC50: > 195 µM (not active)

## CCOC(=O)CSC1=C(C#N)C(c2ccccc2C)C2=C(O)CCCC2=N1 (configuration not stated)
[1]
  EC50: > 195 µM (not active)

## CN1C(=O)NC(c2ccc(O)cc2)C2=C1CN(c1ccc(O)cc1)C2=O (configuration not stated)
Large T antigen
  IC50: 8.64 µM (active)
[2]
  IC50: 34.6 µM (active)

## O=[N+]([O-])c1cccc(CN2[C@@H](Cc3ccccc3)COCCS2(=O)=O)c1
[1]
  EC50: > 195 µM (not active)

## Cc1ccc(S(=O)(=O)NN=Cc2c(O)ccc3ccccc23)cc1
[3]
  EC50: > 53 µM (inactive)
[4]
  IC50: > 47.1 µM (inactive)

## CN(C)c1ccc(/C=N/Nc2ccc(-n3ccnc3)nn2)cc1
[5]
  AC50: 3.85 µM (active)
[1]
  EC50: > 195 µM (not active)

## CC(=O)ON1C(C)(C)CC(OC(=O)c2ccccc2)CC1(C)C
[6]
  EC50: 124 µM (active)

## O=c1oc2c(-c3ccc([N+](=O)[O-])cc3)cc(O)cc2s1
[7]
  IC50: 6.91 µM (active)

## COc1ccc(S(=O)(=O)N2CCCCN3[C@H](C2)[C@@H](c2ccc(C#CC(C)C)cc2)[C@@H]3CO)cc1
Paired box protein Pax-8
  AC50: 6.14 µM (active)

## O=C(O)c1cccc(-n2cccc2/C=C2\SC(=O)N(Cc3ccccc3F)C2=O)c1
[7]
  IC50: 4.62 µM (active)

## CCOC(=O)C1CCCN(c2nc3ccccc3nc2C(C#N)C(=O)OCC)C1 (configuration not stated)
[8]
  CC50: 33.7 µM (active)

## Cc1nc(Sc2ccc(Cl)cc2)c(C#N)c(C)c1[N+](=O)[O-]
[8]
  CC50: 13.2 µM (active)

## Nc1nc(-c2ccc3c(c2)OCCO3)cs1
[3]
  EC50: > 53 µM (inactive)
[4]
  IC50: > 47.1 µM (inactive)

## COc1ccc(NC(=O)CN2CCC3(O)CCCCC3C2c2cc(OC)ccc2OC)cc1 (configuration not stated)
[3]
  EC50: > 53 µM (inactive)
[4]
  IC50: > 47.1 µM (inactive)

## C[C@@H]1CN([C@@H](C)CO)C(=O)c2cc(NS(=O)(=O)c3ccc(Cl)cc3)ccc2O[C@@H](C)CCCCO[C@H]1CN(C)Cc1ccc(C(F)(F)F)cc1
Paired box protein Pax-8
  AC50: 8.29 µM (active)

## CCOC(=O)C1=C(O)/C(=C\c2ccc(O)c(OCC)c2)N=C1C
Large T antigen
  IC50: 9.94 µM (active)
[2]
  IC50: 43.3 µM (active)

## CN(c1ccccc1)S(=O)(=O)c1cccc(NC(=O)CN2CCc3ccccc3C2)c1
[8]
  CC50: 22.4 µM (active)

## CCOC(=O)C1(C(=O)OCC)CCN(S(=O)(=O)c2ccccc2)CC1
[3]
  EC50: > 53 µM (inactive)
[4]
  IC50: > 47.1 µM (inactive)

## CCCC1=Nc2nc(C)nn2C(c2cccnc2)/C1=C(\O)OCC (configuration not stated)
[3]
  EC50: > 53 µM (inactive)
[4]
  IC50: > 47.1 µM (inactive)

## C=C(C)COc1ccc(-c2n[nH]cc2-c2ccc(OC)cc2)c(O)c1
[8]
  CC50: 14.8 µM (active)
[9]
  AC50: 7.79 µM (active)

## COc1ccccc1S(=O)(=O)N(C)C[C@@H]1Oc2cc(C#CCC3CCCC3)ccc2S(=O)(=O)N([C@@H](C)CO)C[C@@H]1C
Paired box protein Pax-8
  AC50: 6.16 µM (active)

## O=C(CCl)Nc1cc2[nH]c(O)nc2cc1Br
Paired box protein Pax-8
  AC50: 3.95 µM (active)

## COc1cc(C#CC#CCN2CCCCC2)ccc1O
[10]
  EC50: 6.95 µM (active)
[5]
  AC50: 3.57 µM (active)
H4
  EC50: > 120 µM (not active)
[11]
  EC50: 6.87 µM (active)
Large T antigen
  IC50: 10.3 µM (active)

## N#C/C(=C\c1ccc(O)c(O)c1)C(=O)NCCc1ccccc1
Cytochrome P450 2D6
  AC50: 39.8 µM (inconclusive)
Large T antigen
  IC50: 7.1 µM (active)

## CS(=O)(=O)N(CC(=O)NCCSC1CCCCC1)c1ccc2c(c1)OCO2
[1]
  EC50: > 195 µM (not active)

## Cc1cccc2cc(CN(CC3CCCO3)C(c3nnnn3Cc3ccco3)C(C)C)c(O)nc12 (configuration not stated)
[8]
  CC50: 16.8 µM (active)

## CC(C)CNC(=O)CN1c2cccc3cccc(c23)S1(=O)=O
[3]
  EC50: > 53 µM (inactive)
[4]
  IC50: > 47.1 µM (inactive)

## COc1cc(O)nc(SCC(=O)Nc2nc3c(s2)CCCC3)n1
[1]
  EC50: > 195 µM (not active)

## CCC1=CC(c2ccccc2)n2ncnc2N1 (configuration not stated)
[1]
  EC50: > 195 µM (not active)

## O=C(Nc1ccc2c(c1)CCCN2C(=O)c1cccs1)c1c(F)cccc1Cl
[8]
  CC50: 24.1 µM (active)

## Cc1cc(SCC(=O)Nc2cccc(S(N)(=O)=O)c2)c(C)cc1Br
[3]
  EC50: > 53 µM (inactive)
[4]
  IC50: > 47.1 µM (inactive)

## CCCN(CCC)S(=O)(=O)c1ccc(NC(=O)c2cc(C(=O)OC)cc([N+](=O)[O-])c2)cc1
[1]
  EC50: > 195 µM (not active)
[12]
  EC50: 0.323 µM (active)
[13]
  EC50: > 60 µM (inconclusive)

## COc1cc(/C=C/C(=O)NC(C)C2CC3CCC2C3)cc(OC)c1OC (configuration not stated)
[1]
  EC50: > 195 µM (not active)
